Values after ≈ are worked out from the molar mass of the structure shown. Active and inactive are the calls of the source. The rule behind the calls is not given here.
Legend:
Staphylococcus aureus [1] = test: Antibacterial activity against methicillin-resistant Staphylococcus aureus 2658 RCMB after 18 to 20 hrs by broth microdilution method; assay type: functional
Staphylococcus aureus [2] = test: Antibacterial activity against mupirocin/rifampicin-resistant Staphylococcus aureus RN4220 NRS107 clinical isolate after 18 to 20 hrs by broth microdilution method; assay type: functional
Staphylococcus aureus [3] = test: Antibacterial activity against methicillin/ciprofloxacin/gentamicin/clindamycin-resistant Staphylococcus aureus USA200 NRS383 clinical isolate after 18 to 20 hrs by broth microdilution method; assay type: functional
Staphylococcus aureus [4] = test: Antibacterial activity against methicillin-resistant Staphylococcus aureus USA400 NRS123 clinical isolate after 18 to 20 hrs by broth microdilution method; assay type: functional
Staphylococcus aureus [5] = test: Antibacterial activity against methicillin/ciprofloxacin/clindamycin-resistant Staphylococcus aureus USA100 NRS382 clinical isolate after 18 to 20 hrs by broth microdilution method; assay type: functional
Staphylococcus aureus [6] = test: Antibacterial activity against methicillin/erythromycin/tetracycline-resistant Staphylococcus aureus USA300 NRS384 clinical isolate after 18 to 20 hrs by broth microdilution method; assay type: functional
Staphylococcus aureus [7] = test: Antibacterial activity against vancomycin-resistant Staphylococcus aureus VRSA4 clinical isolate after 18 to 20 hrs by broth microdilution method; assay type: functional
Staphylococcus aureus [8] = test: Antibacterial activity against vancomycin-resistant Staphylococcus aureus VRSA10 clinical isolate after 18 to 20 hrs by broth microdilution method; assay type: functional
Staphylococcus aureus [9] = test: Bactericidal activity against mupirocin/rifampicin-resistant Staphylococcus aureus RN4220 NRS107 clinical isolate after 24 hrs; assay type: functional; conditions: RN4220 NRS107, 24 h
Staphylococcus aureus [10] = test: Bactericidal activity against methicillin/ciprofloxacin/gentamicin/clindamycin-resistant Staphylococcus aureus USA200 NRS383 clinical isolate after 24 hrs; assay type: functional; conditions: USA200 NRS383, 24 h
Staphylococcus aureus [11] = test: Bactericidal activity against methicillin-resistant Staphylococcus aureus USA400 NRS123 clinical isolate after 24 hrs; assay type: functional; conditions: USA400 NRS123, 24 h
Staphylococcus aureus [12] = test: Bactericidal activity against methicillin/ciprofloxacin/clindamycin-resistant Staphylococcus aureus USA100 NRS382 clinical isolate after 24 hrs; assay type: functional; conditions: USA100 NRS382, 24 h
Staphylococcus aureus [13] = test: Bactericidal activity against methicillin/erythromycin/tetracycline-resistant Staphylococcus aureus USA300 NRS384 clinical isolate after 24 hrs; assay type: functional; conditions: USA300 NRS384, 24 h
Staphylococcus aureus [14] = test: Bactericidal activity against vancomycin-resistant Staphylococcus aureus VRSA4 clinical isolate after 24 hrs; assay type: functional; conditions: VRSA4, 24 h
Staphylococcus aureus [15] = test: Bactericidal activity against vancomycin-resistant Staphylococcus aureus VRSA10 clinical isolate after 24 hrs; assay type: functional; conditions: VRSA10, 24 h
Staphylococcus aureus [16] = test: Bactericidal activity against methicillin-resistant Staphylococcus aureus USA400 NRS123 clinical isolate assessed as time required to reduce 4 log10CFU of bacterial load at 4 times MIC by time kill assay; assay type: functional
Staphylococcus aureus [17] = test: Bactericidal activity against methicillin-resistant Staphylococcus aureus USA400 NRS123 clinical isolate assessed as reduction of bacterial load at 4 times MIC after 48 hrs by time kill assay; assay type: functional
HaCaT = test: Cytotoxicity against human HaCaT cells assessed as decrease in cell viability up to 16 ug/ml after 2 hrs by MTS assay; assay type: cell-based

| Structure (SMILES) | MIC (Staphylococcus aureus [1]) | MIC (Staphylococcus aureus [2]) | MIC (Staphylococcus aureus [3]) | MIC (Staphylococcus aureus [4]) | MIC (Staphylococcus aureus [5]) | MIC (Staphylococcus aureus [6]) | MIC (Staphylococcus aureus [7]) | MIC (Staphylococcus aureus [8]) | MBC (Staphylococcus aureus [9]) | MBC (Staphylococcus aureus [10]) | MBC (Staphylococcus aureus [11]) | MBC (Staphylococcus aureus [12]) | MBC (Staphylococcus aureus [13]) | MBC (Staphylococcus aureus [14]) | MBC (Staphylococcus aureus [15]) | Time (Staphylococcus aureus [16]) | Activity (Staphylococcus aureus [17]) | Activity (HaCaT) |
| --- | --- | --- | --- | --- | --- | --- | --- | --- | --- | --- | --- | --- | --- | --- | --- | --- | --- | --- |
| CCOc1ccc(-c2nc(C)c(/C(C)=N/NC(=N)N)s2)cc1 | > 30 mg/L | – | – | – | – | – | – | – | – | – | – | – | – | – | – | – | – | – |
| CCCCCCCCOc1ccc(-c2nc(C)c(/C(C)=N/NC(=N)N)s2)cc1 | 15.6 mg/L (≈ 38.9 µM) | 4 mg/L (≈ 9.96 µM) | 1 mg/L (≈ 2.49 µM) | 4 mg/L (≈ 9.96 µM) | 2 mg/L (≈ 4.98 µM) | 4 mg/L (≈ 9.96 µM) | 4 mg/L (≈ 9.96 µM) | 4 mg/L (≈ 9.96 µM) | 8 mg/L (≈ 19.9 µM) | 2 mg/L (≈ 4.98 µM) | 8 mg/L (≈ 19.9 µM) | 2 mg/L (≈ 4.98 µM) | 4 mg/L (≈ 9.96 µM) | 4 mg/L (≈ 9.96 µM) | 4 mg/L (≈ 9.96 µM) | <=2 hr | Active | Non-Toxic |
| C/C(=N\NC(=N)N)c1sc(-c2ccc(OCC3CCC3)cc2)nc1C | > 30 mg/L | – | – | – | – | – | – | – | – | – | – | – | – | – | – | – | – | – |
| C/C(=N\NC(=N)N)c1sc(-c2ccc(OCC(C)C)cc2)nc1C | 15.6 mg/L (≈ 45.2 µM) | 32 mg/L (≈ 92.6 µM) | 8 mg/L (≈ 23.2 µM) | 16 mg/L (≈ 46.3 µM) | 8 mg/L (≈ 23.2 µM) | 16 mg/L (≈ 46.3 µM) | 16 mg/L (≈ 46.3 µM) | 16 mg/L (≈ 46.3 µM) | 32 mg/L (≈ 92.6 µM) | 8 mg/L (≈ 23.2 µM) | > 32 mg/L | 16 mg/L (≈ 46.3 µM) | 32 mg/L (≈ 92.6 µM) | 32 mg/L (≈ 92.6 µM) | 32 mg/L (≈ 92.6 µM) | – | – | – |
| CCCCCOc1ccc(-c2nc(C)c(/C(C)=N/NC(=N)N)s2)cc1 | 1.95 mg/L (≈ 5.42 µM) | – | 64 mg/L (≈ 178 µM) | – | – | – | – | – | – | > 64 mg/L | – | – | – | – | – | – | – | – |
| CCC(CC)COc1ccc(-c2nc(C)c(/C(C)=N/NC(=N)N)s2)cc1 | 7.81 mg/L (≈ 20.9 µM) | – | 32 mg/L (≈ 85.7 µM) | – | 32 mg/L (≈ 85.7 µM) | – | – | – | – | > 64 mg/L | – | 32 mg/L (≈ 85.7 µM) | – | – | – | – | – | – |
| C/C=C/COc1ccc(-c2nc(C)c(/C(C)=N/NC(=N)N)s2)cc1 | 15.6 mg/L (≈ 45.5 µM) | 32 mg/L (≈ 93.2 µM) | 16 mg/L (≈ 46.6 µM) | 32 mg/L (≈ 93.2 µM) | 16 mg/L (≈ 46.6 µM) | 32 mg/L (≈ 93.2 µM) | 32 mg/L (≈ 93.2 µM) | 32 mg/L (≈ 93.2 µM) | 32 mg/L (≈ 93.2 µM) | > 64 mg/L | > 32 mg/L | 128 mg/L (≈ 373 µM) | > 32 mg/L | 32 mg/L (≈ 93.2 µM) | 32 mg/L (≈ 93.2 µM) | – | – | – |
| C/C(=N\NC(=N)N)c1sc(-c2ccc(OCCCC(C)C)cc2)nc1C | 15.6 mg/L (≈ 41.8 µM) | 16 mg/L (≈ 42.8 µM) | 4 mg/L (≈ 10.7 µM) | 16 mg/L (≈ 42.8 µM) | 2 mg/L (≈ 5.35 µM) | 16 mg/L (≈ 42.8 µM) | 16 mg/L (≈ 42.8 µM) | 16 mg/L (≈ 42.8 µM) | 16 mg/L (≈ 42.8 µM) | 16 mg/L (≈ 42.8 µM) | 32 mg/L (≈ 85.7 µM) | 2 mg/L (≈ 5.35 µM) | 32 mg/L (≈ 85.7 µM) | 16 mg/L (≈ 42.8 µM) | 16 mg/L (≈ 42.8 µM) | – | – | – |
| CCCOc1ccc(-c2nc(C)c(/C(C)=N/NC(=N)N)s2)cc1 | > 30 mg/L | – | – | – | – | – | – | – | – | – | – | – | – | – | – | – | – | – |

From ChEMBL document CHEMBL4002577, “Phenylthiazole antibiotics: A metabolism-guided approach to overcome short duration of action” (Eur J Med Chem, 2017)
